From patent US9637491B2, “Pyrazolo[4,3-D]pyrimidines as kinase inhibitors” (Origenis GmbH, priority 2012, dated 2017) come the findings set out here.

For the assay, the target named is T1, SYK kinase (Homo sapiens, UniProt P43405).
T1 construct: purchased Invitrogen, Carlsbad
Description: SYK assay (OMNIA Kinase Assay, Invitrogen). Type of assay: biochemical. The conditions noted are these: SYK Activities; 1 mM ATP, 10 μM Omnia Peptide Substrate Tyr 7, 30° C. The method, boiled down: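 Continuous-read fluorescence kinase assay: SOX-labelled Tyr 7 peptide (10 μM) with 1 mM ATP and 0.2 mM DTT, 30° C, reaction started by adding SYK. Fluorescence (ex 360/em 485 nm) read every 30 s for 30 min. IC50 from sigmoidal fit of reaction velocity versus inhibitor concentration.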
The IC50 is the concentration that inhibits the measured activity by half. A lower IC50 goes with greater potency. On to `NS(=O)(=O)c1cccc(-c2nc(Nc3cnn(C4CCOCC4)c3)c3[nH]ncc3n2)c1` [Example 425, 3-(7-((1-(tetrahydro-2H-pyran-4-yl)-1H-pyrazol-4-yl)amino)-1H-pyrazolo[4,3-d]pyrimidin-5-yl)benzenesulfonamide], for which the IC50 fell in the range of 0.01 to 0.1 µM.

`CC(C)n1cc(Nc2nc(-c3cccc(S(N)(=O)=O)c3)nc3cn[nH]c23)cn1` [Example 426, 3-(7-((1-isopropyl-1H-pyrazol-4-yl)amino)-1H-pyrazolo[4,3-d]pyrimidin-5-yl)benzenesulfonamide] displayed an IC50 of 0.01 to 0.1 µM.

Consider `CC(=O)N1CCC(n2cc(Nc3nc(-c4cccc(S(N)(=O)=O)c4)nc4cn[nH]c34)cn2)CC1` [Example 427, 3-(7-((1-(1-acetylpiperidin-4-yl)-1H-pyrazol-4-yl)amino)-1H-pyrazolo[4,3-d]pyrimidin-5-yl)benzenesulfonamide], for which the IC50 was in the range of 0.1 to 1 µM.

Regarding `CC(C)Cn1cc(Nc2nc(-c3cccc(S(N)(=O)=O)c3)nc3cn[nH]c23)cn1` [Example 428, 3-(7-((1-isobutyl-1H-pyrazol-4-yl)amino)-1H-pyrazolo[4,3-d]pyrimidin-5-yl)benzenesulfonamide], the IC50 is 0.01 to 0.1 µM.

In turn, `COCCCn1cc(Nc2nc(-c3cccs3)nc3cn[nH]c23)cn1` [Example 429, N-(1-(3-methoxypropyl)-1H-pyrazol-4-yl)-5-(thiophen-2-yl)-1H-pyrazolo[4,3-d]pyrimidin-7-amine] gave an IC50 of 0.01 to 0.1 µM.

For `c1csc(-c2nc(Nc3cnn(C4CCOCC4)c3)c3[nH]ncc3n2)c1` [Example 430, N-(1-(tetrahydro-2H-pyran-4-yl)-1H-pyrazol-4-yl)-5-(thiophen-2-yl)-1H-pyrazolo[4,3-d]pyrimidin-7-amine], the IC50 lay within 0.01 to 0.1 µM.

`CC(C)n1cc(Nc2nc(-c3cccs3)nc3cn[nH]c23)cn1` [Example 431, N-(1-isopropyl-1H-pyrazol-4-yl)-5-(thiophen-2-yl)-1H-pyrazolo[4,3-d]pyrimidin-7-amine] had an IC50 of 0.01 to 0.1 µM.

`CC(C)Cn1cc(Nc2nc(-c3cccs3)nc3cn[nH]c23)cn1` [Example 432, N-(1-isobutyl-1H-pyrazol-4-yl)-5-(thiophen-2-yl)-1H-pyrazolo[4,3-d]pyrimidin-7-amine]: the IC50 is 0.01 to 0.1 µM.

Regarding `CN1CCC(n2cc(Nc3nc(-c4cccs4)nc4cn[nH]c34)cn2)CC1` [Example 433, N-(1-(1-methylpiperidin-4-yl)-1H-pyrazol-4-yl)-5-(thiophen-2-yl)-1H-pyrazolo[4,3-d]pyrimidin-7-amine], the IC50 is less than 0.01 µM.

Take `COCCCn1cc(Nc2nc(-c3cnn(C)c3)nc3cn[nH]c23)cn1` [Example 436, N-(1-(3-methoxypropyl)-1H-pyrazol-4-yl)-5-(1-methyl-1H-pyrazol-4-yl)-1H-pyrazolo[4,3-d]pyrimidin-7-amine]: the IC50 lay in the range of 0.1 to 1 µM.

Compound `CC(C)Cn1cc(Nc2nc(-c3cnn(C)c3)nc3cn[nH]c23)cn1` [Example 437, N-(1-isobutyl-1H-pyrazol-4-yl)-5-(1-methyl-1H-pyrazol-4-yl)-1H-pyrazolo[4,3-d]pyrimidin-7-amine] gave an IC50 of 0.01 to 0.1 µM.

Take `Fc1cccc(F)c1-c1nc(Nc2cnn(C3CCOCC3)c2)c2[nH]ncc2n1` [Example 439, 5-(2,6-difluorophenyl)-N-(1-(tetrahydro-2H-pyran-4-yl)-1H-pyrazol-4-yl)-1H-pyrazolo[4,3-d]pyrimidin-7-amine]: the IC50 is 0.1 to 1 µM.

For `CC(C)Cn1cc(Nc2nc(-c3c(F)cccc3F)nc3cn[nH]c23)cn1` [Example 440, 5-(2,6-difluorophenyl)-N-(1-isobutyl-1H-pyrazol-4-yl)-1H-pyrazolo[4,3-d]pyrimidin-7-amine], the IC50 lay within 0.1 to 1 µM.

In turn, `OCCN1CCN(c2ccc(Nc3nc(-c4ccoc4)nc4cn[nH]c34)cc2)CC1` [Example 442, 2-(4-(4-((5-(furan-3-yl)-1H-pyrazolo[4,3-d]pyrimidin-7-yl)amino)phenyl)piperazin-1-yl)ethan-1-ol] came in with an IC50 of 0.01 to 0.1 µM.

For the compound `OC1CCN(c2ccc(Nc3nc(-c4ccoc4)nc4cn[nH]c34)cc2)CC1` [Example 443, 1-(4-((5-(furan-3-yl)-1H-pyrazolo[4,3-d]pyrimidin-7-yl)amino)phenyl)piperidin-4-ol], the IC50 lay within 0.01 to 0.1 µM.

`OCCn1cc(Nc2nc(-c3nc4ccccc4o3)nc3cn[nH]c23)cn1` [Example 444, 2-(4-((5-(benzo[d]oxazol-2-yl)-1H-pyrazolo[4,3-d]pyrimidin-7-yl)amino)-1H-pyrazol-1-yl)ethan-1-ol] came in with an IC50 of 0.1 to 1 µM.

As to `CN1CCC(n2cc(Nc3nc(-c4nc5ccccc5o4)nc4cn[nH]c34)cn2)CC1` [Example 445, 5-(benzo[d]oxazol-2-yl)-N-(1-(1-methylpiperidin-4-yl)-1H-pyrazol-4-yl)-1H-pyrazolo[4,3-d]pyrimidin-7-amine], the IC50 lay in the range of 0.01 to 0.1 µM.

Take `c1ccc2oc(-c3nc(Nc4cnn(C5CCOCC5)c4)c4[nH]ncc4n3)nc2c1` [Example 446, 5-(benzo[d]oxazol-2-yl)-N-(1-(tetrahydro-2H-pyran-4-yl)-1H-pyrazol-4-yl)-1H-pyrazolo[4,3-d]pyrimidin-7-amine]: the IC50 lay in the range of 0.01 to 0.1 µM.

As to `c1nn(C2CCNC2)cc1Nc1nc(-c2ccc3cn[nH]c3c2)nc2cn[nH]c12` (centres unmarked) [Example 447, 5-(1H-indazol-6-yl)-N-(1-(pyrrolidin-3-yl)-1H-pyrazol-4-yl)-1H-pyrazolo[4,3-d]pyrimidin-7-amine], the IC50 is less than 0.01 µM.

In the case of `COCC(COC)n1cc(Nc2nc(-c3ccc4cn[nH]c4c3)nc3cn[nH]c23)cn1` [Example 448, N-(1-(1,3-dimethoxypropan-2-yl)-1H-pyrazol-4-yl)-5-(1H-indazol-6-yl)-1H-pyrazolo[4,3-d]pyrimidin-7-amine], the IC50 was in the range of 0.01 to 0.1 µM.

In turn, `CC(C)(O)Cn1cc(Nc2nc(-c3ccc4cn[nH]c4c3)nc3cn[nH]c23)cn1` [Example 449, 1-(4-((5-(1H-indazol-6-yl)-1H-pyrazolo[4,3-d]pyrimidin-7-yl)amino)-1H-pyrazol-1-yl)-2-methylpropan-2-ol] displayed an IC50 of 0.01 to 0.1 µM.

The compound `OC1CCN(c2ccc(Nc3nc(-c4ccco4)nc4cn[nH]c34)cc2)CC1` [Example 450, 1-(4-((5-(furan-2-yl)-1H-pyrazolo[4,3-d]pyrimidin-7-yl)amino)phenyl)piperidin-4-ol] showed a half-inhibitory concentration (IC50) of 0.01 to 0.1 µM.

On to `CC(C)(O)Cn1cc(Nc2nc(-c3ccco3)nc3cn[nH]c23)cn1` [Example 451, 1-(4-((5-(furan-2-yl)-1H-pyrazolo[4,3-d]pyrimidin-7-yl)amino)-1H-pyrazol-1-yl)-2-methylpropan-2-ol], for which the IC50 was 0.01 to 0.1 µM.

`CN(C)C(=O)Cn1cc(Nc2nc(-c3ccco3)nc3cn[nH]c23)cn1` [Example 452, 2-(4-((5-(furan-2-yl)-1H-pyrazolo[4,3-d]pyrimidin-7-yl)amino)-1H-pyrazol-1-yl)-N,N-dimethylacetamide] yielded an IC50 of 0.1 to 1 µM.

As for `CC(C)(C)OC(=O)N1CCC(n2cc(Nc3nc(-c4ccco4)nc4cn[nH]c34)cn2)C1` (centres unmarked) [Example 453, tert-butyl 3-(4-((5-(furan-2-yl)-1H-pyrazolo[4,3-d]pyrimidin-7-yl)amino)-1H-pyrazol-1-yl)pyrrolidine-1-carboxylate], the IC50 lay within 0.1 to 1 µM.

As to `COCC(COC)n1cc(Nc2nc(-c3ccco3)nc3cn[nH]c23)cn1` [Example 455, N-(1-(1,3-dimethoxypropan-2-yl)-1H-pyrazol-4-yl)-5-(furan-2-yl)-1H-pyrazolo[4,3-d]pyrimidin-7-amine], the IC50 lay within 0.1 to 1 µM.

`COCCn1cc(Nc2nc(-c3nc4ccccc4s3)nc3cn[nH]c23)cn1` [Example 456, 5-(benzo[d]thiazol-2-yl)-N-(1-(2-methoxyethyl)-1H-pyrazol-4-yl)-1H-pyrazolo[4,3-d]pyrimidin-7-amine] registered an IC50 of less than 0.01 µM.

In the case of `CC(=O)N1CCC(n2cc(Nc3nc(-c4nc5ccccc5s4)nc4cn[nH]c34)cn2)CC1` [Example 458, 1-(4-(4-((5-(benzo[d]thiazol-2-yl)-1H-pyrazolo[4,3-d]pyrimidin-7-yl)amino)-1H-pyrazol-1-yl)piperidin-1-yl)ethan-1-one], the IC50 was less than 0.01 µM.

Compound `CN1CCC(n2cc(Nc3nc(-c4nc5ccccc5s4)nc4cn[nH]c34)cn2)CC1` [Example 459, 5-(benzo[d]thiazol-2-yl)-N-(1-(1-methylpiperidin-4-yl)-1H-pyrazol-4-yl)-1H-pyrazolo[4,3-d]pyrimidin-7-amine] returned an IC50 of 0.01 to 0.1 µM.

On to `c1ccc(Cn2cc(-c3nc(Nc4ccc(N5CCOCC5)cc4)c4[nH]ncc4n3)cn2)cc1` [Example 460, 5-(1-benzyl-1H-pyrazol-4-yl)-N-(4-morpholinophenyl)-1H-pyrazolo[4,3-d]pyrimidin-7-amine], for which the IC50 was 0.01 to 0.1 µM.

For the compound `CN(C)C(=O)Cn1cc(Nc2nc(C3CCC3)nc3cn[nH]c23)cn1` [Example 461, 2-(4-((5-cyclobutyl-1H-pyrazolo[4,3-d]pyrimidin-7-yl)amino)-1H-pyrazol-1-yl)-N,N-dimethylacetamide], the IC50 was 0.1 to 1 µM.

Consider `c1nn(C2CCNC2)cc1Nc1nc(C2CCC2)nc2cn[nH]c12` (centres unmarked) [Example 462, 5-cyclobutyl-N-(1-(pyrrolidin-3-yl)-1H-pyrazol-4-yl)-1H-pyrazolo[4,3-d]pyrimidin-7-amine], for which the IC50 was less than 0.01 µM.

Take `COCC(COC)n1cc(Nc2nc(C3CCC3)nc3cn[nH]c23)cn1` [Example 463, 5-cyclobutyl-N-(1-(1,3-dimethoxypropan-2-yl)-1H-pyrazol-4-yl)-1H-pyrazolo[4,3-d]pyrimidin-7-amine]: the IC50 was 0.1 to 1 µM.

Compound `c1cncc(-c2cccc(-c3nc(Nc4cnn(C5CCNC5)c4)c4[nH]ncc4n3)c2)c1` (centres unmarked) [Example 465, 5-(3-(pyridin-3-yl)phenyl)-N-(1-(pyrrolidin-3-yl)-1H-pyrazol-4-yl)-1H-pyrazolo[4,3-d]pyrimidin-7-amine] yielded an IC50 of 0.01 to 0.1 µM.

Compound `CN(C)C(=O)Cn1cc(Nc2nc(-c3cccc(-c4cccnc4)c3)nc3cn[nH]c23)cn1` [Example 466, N,N-dimethyl-2-(4-((5-(3-(pyridin-3-yl)phenyl)-1H-pyrazolo[4,3-d]pyrimidin-7-yl)amino)-1H-pyrazol-1-yl)acetamide] yielded an IC50 of 0.01 to 0.1 µM.
